This test deals with Mycobacterium tuberculosis strain EH4.0 expressing green-fluorescent protein (GFP). Kind of test: microbe, parasite or virus in culture. It counts as cell-based. The settings on record: 168 h, read-out: pIC50 (converted).
As to `CCc1nc2nc3c(cn2c1C(=O)NCc1ccc(N2CCN(S(=O)(=O)C(F)(F)F)C=N2)c(F)c1)COCC3` [Compound 90], the IC50 was 74.1 nM.
For the molecule `CCc1nc2cc(OC)c(Cl)cn2c1C(=O)NCc1ccc(N2CCN(S(=O)(=O)C(F)(F)F)C=N2)c(F)c1` [Compound 93], the IC50 was 49 nM.
With `CCc1nc2ccc(Cl)cn2c1C(=O)NCc1ccc(N2CCNC(OC)=N2)cc1` [Compound 96], the IC50 is 36.3 nM.
Take `CCc1nc2cc(Br)c(C)cn2c1C(=O)NCc1ccc(N2CCN(S(=O)(=O)C(F)(F)F)C=N2)c(F)c1` [Compound 97]: the IC50 was 33.9 nM.
Regarding `COC1=NN(c2ccc(CNC(=O)c3c(C(F)(F)F)nc4n3CCCC4)cc2)CCN1S(=O)(=O)C(F)(F)F` [Compound 98], the IC50 was 33.1 nM.
Consider `O=C(NCc1ccc(N2CCN(S(=O)(=O)C(F)(F)F)C=N2)c(F)c1)c1c(Br)nc2n1CCC2` [Compound 99], for which the IC50 is 32.4 nM.
As to `CCc1nc2cc3c(cn2c1C(=O)NCc1ccc(N2CCN(S(=O)(=O)C(F)(F)F)C=N2)c(F)c1)OCCO3` [Compound 100], the IC50 was 31.6 nM.
Consider `CCc1nc2ccc(C3CC3)cn2c1C(=O)NCc1ccc(N2CCN(S(=O)(=O)C(F)(F)F)C=N2)c(F)c1` [Compound 101], for which the IC50 was 29.5 nM.
Take `CCc1nc2c(Cl)cc(C)cn2c1C(=O)NCc1ccc(N2CCN(S(=O)(=O)C(F)(F)F)C=N2)c(F)c1` [Compound 102]: the IC50 is 29.5 nM.
For the molecule `CCc1nc2cc(Br)c(Cl)cn2c1C(=O)NCc1ccc(N2CCN(S(=O)(=O)C(F)(F)F)C=N2)c(F)c1` [Compound 103], the IC50 was 28.2 nM.
Next, `O=C(NCc1ccc(N2CCN(S(=O)(=O)C(F)(F)F)C=N2)cc1)c1c(C(F)F)nc2n1CCCC2` [Compound 104]: 28.2 nM; `CCc1nc2c(C)cc(OC)cn2c1C(=O)NCc1ccc(N2CCN(S(=O)(=O)C(F)(F)F)C=N2)c(F)c1` [Compound 105]: 27.5 nM; `CCc1nc2cc(OC)c(C)cn2c1C(=O)NCc1ccc(N2CCN(S(=O)(=O)C(F)(F)F)C=N2)c(F)c1` [Compound 106]: 25.7 nM.
For the molecule `CCc1nc2cc(C)c(Cl)cn2c1C(=O)NCc1ccc(N2CCN(S(=O)(=O)C(F)(F)F)C=N2)cc1` [Compound 107], the IC50 is 24 nM.
In the case of `CCc1nc2cc(C)c(Cl)cn2c1C(=O)NCc1ccc(N2CCN(S(=O)(=O)C(F)(F)F)C(OC)=N2)cc1` [Compound 108], the IC50 is 20.4 nM.
On to `COC1=NN(c2ccc(CNC(=O)c3c(C(F)F)nc4n3CCCC4)cc2)CCN1S(=O)(=O)C(F)(F)F` [Compound 109], for which the IC50 is 20 nM.
Next, `CCc1nc2ccc(Cl)cn2c1C(=O)NCc1ccc(N2CCNC(OC)=N2)c(F)c1` [Compound 110]: 18.6 nM.
For the molecule `CCc1nc2nc(C)ccn2c1C(=O)NCc1ccc(N2CCN(S(=O)(=O)C(F)(F)F)C=N2)c(F)c1` [Compound 111], the IC50 is 18.2 nM.
Consider `COC1=NN(c2ccc(CNC(=O)c3c(C(F)(F)F)nc4n3CCCC4)cc2F)CCN1S(=O)(=O)C(F)(F)F` [Compound 112], for which the IC50 was 17.4 nM.
Next, `CCc1nc2cc3c(cn2c1C(=O)NCc1ccc(N2CCN(S(=O)(=O)C(F)(F)F)C=N2)c(F)c1)CCC3` [Compound 113]: 16.2 nM.
Next, `O=C(NCc1ccc(N2CCN(S(=O)(=O)C(F)(F)F)C=N2)c(F)c1)c1c(C(F)(F)F)nc2cc(F)c(Cl)cn12` [Compound 114]: 16.2 nM; `CCc1nc2nc(OC)ccn2c1C(=O)NCc1ccc(N2CCN(S(=O)(=O)C(F)(F)F)C=N2)c(F)c1` [Compound 115]: 15.8 nM; `CCc1nc2cc(C)c(Cl)cn2c1C(=O)NCc1ccc(N2CCN(S(=O)(=O)C(F)(F)F)C=N2)c(F)c1` [Compound 116]: 15.1 nM.
In the case of `COC1=NN(c2ccc(CNC(=O)c3c(C(F)(F)F)nc4ccc(Cl)cn34)cc2F)CCN1S(=O)(=O)C(F)(F)F` [Compound 117], the IC50 was 14.8 nM.
Turning to `CCc1nc2cc(Cl)c(Cl)cn2c1C(=O)NCc1ccc(N2CCN(S(=O)(=O)C(F)(F)F)C=N2)c(F)c1` [Compound 118], the IC50 is 13.8 nM.
With `CCc1nc2nc3c(cn2c1C(=O)NCc1ccc(N2CCN(S(=O)(=O)C(F)(F)F)C=N2)c(F)c1)CCCC3` [Compound 119], the IC50 was 13.5 nM.
On to `CCc1nc2ccc(Cl)cn2c1C(=O)NCc1ccc(N2CCN(c3cccs3)C(OC)=N2)cc1` [Compound 120], for which the IC50 is 12.9 nM.
The result for `CCc1nc2ncc(F)cn2c1C(=O)NCc1ccc(N2CCN(S(=O)(=O)C(F)(F)F)C(OC)=N2)c(F)c1` [Compound 121] reads 12.9 nM.
The result for `O=C(NCc1ccc(N2CCN(S(=O)(=O)C(F)(F)F)C=N2)c(F)c1)c1c(C(F)(F)F)nc2n1CCCC2` [Compound 123] reads 10.2 nM.
For the molecule `O=C(NCc1ccc(N2CCN(S(=O)(=O)C(F)(F)F)C=N2)c(F)c1)c1c(C(F)(F)F)nc2ccc(Cl)cn12` [Compound 124], the IC50 is 10 nM.
Next, `CCc1nc2nc(Cl)ccn2c1C(=O)NCc1ccc(N2CCN(S(=O)(=O)C(F)(F)F)C=N2)c(F)c1` [Compound 125]: 9.77 nM; `CCc1nc2nc(N)c(Cl)cn2c1C(=O)NCc1ccc(N2CCN(S(=O)(=O)C(F)(F)F)C=N2)c(F)c1` [Compound 126]: 9.77 nM; `O=C(NCc1ccc(N2CCN(S(=O)(=O)C(F)(F)F)C=N2)cc1)c1c(C(F)(F)F)nc2ccccn12` [Compound 127]: 9.55 nM.
As to `O=C(NCc1ccc(N2CCN(S(=O)(=O)C(F)(F)F)C=N2)cc1)c1c(C(F)F)nc2ccccn12` [Compound 128], the IC50 is 9.12 nM.
Next, `CCc1nc2c(Cl)cccn2c1C(=O)NCc1ccc(N2CCN(S(=O)(=O)C(F)(F)F)C=N2)c(F)c1` [Compound 129]: 8.91 nM; `CCc1nc2ncc(F)cn2c1C(=O)NCc1ccc(N2CCN(S(=O)(=O)C(F)(F)F)C=N2)c(F)c1` [Compound 130]: 8.71 nM; `CCc1nc2cc3c(cn2c1C(=O)NCc1ccc(N2CCN(S(=O)(=O)C(F)(F)F)C=N2)c(F)c1)OCC3` [Compound 131]: 8.71 nM.
For the molecule `CCc1nc2cc(C)c(Cl)cn2c1C(=O)NCc1ccc(N2CCN(S(=O)(=O)C(F)(F)F)C(OC)=N2)c(F)c1` [Compound 132], the IC50 is 8.32 nM.
Take `Cc1nc2sc(Cl)cn2c1C(=O)NCc1ccc(N2CCN(S(=O)(=O)C(F)(F)F)C=N2)c(F)c1` [Compound 133]: the IC50 was 7.59 nM.
Next, `CCc1nc2cc3c(cn2c1C(=O)NCc1ccc(N2CCN(S(=O)(=O)C(F)(F)F)C=N2)c(F)c1)OCO3` [Compound 134]: 7.59 nM; `CCc1nc2sc(Cl)cn2c1C(=O)NCc1ccc(N2CCN(S(=O)(=O)C(F)(F)F)C=N2)c(F)c1` [Compound 135]: 7.24 nM.
Consider `Cc1cn2c(C(=O)NCc3ccc(N4CCN(S(=O)(=O)C(F)(F)F)C=N4)c(F)c3)c(C(F)(F)F)nc2s1` [Compound 136], for which the IC50 was 6.31 nM.
For `COC1=NN(c2ccc(CNC(=O)c3c(C(F)F)nc4n3CCCC4)cc2F)CCN1S(=O)(=O)C(F)(F)F` [Compound 137], the IC50 is 6.17 nM.
For `CCc1nc2cc(F)c(Cl)cn2c1C(=O)NCc1ccc(N2CCN(S(=O)(=O)C(F)(F)F)C(OC)=N2)c(F)c1` [Compound 141], the IC50 is 4.9 nM.
For the molecule `CCc1nc2ccc(Cl)cn2c1C(=O)NCc1cnc(N2CCN(S(=O)(=O)C(F)(F)F)C=N2)c(F)c1` [Compound 142], the IC50 was 4.68 nM.
Consider `CCc1nc2ncc(Cl)cn2c1C(=O)NCc1ccc(N2CCN(S(=O)(=O)C(F)(F)F)C=N2)c(F)c1` [Compound 146], for which the IC50 is 3.8 nM.
Next, `O=C(NCc1ccc(N2CCN(S(=O)(=O)C(F)(F)F)C=N2)c(F)c1)c1c(C(F)F)nc2n1CCCC2` [Compound 147]: 3.8 nM; `COC1=NN(c2ccc(CNC(=O)c3c(C(F)F)nc4ccccn34)cc2)CCN1S(=O)(=O)C(F)(F)F` [Compound 149]: 3.55 nM; `COC1=NN(c2ccc(CNC(=O)c3c(C(F)(F)F)nc4ccccn34)cc2)CCN1S(=O)(=O)C(F)(F)F` [Compound 150]: 2.95 nM.
As to `Cc1cn2c(C(=O)NCc3ccc(N4CCN(S(=O)(=O)C(F)(F)F)C=N4)c(F)c3)c(C)nc2s1` [Compound 153], the IC50 is 1.78 nM.
As for `CCc1nc2nc(C)c(Cl)cn2c1C(=O)NCc1ccc(N2CCN(S(=O)(=O)C(F)(F)F)C=N2)c(F)c1` [Compound 155], the IC50 was 1.62 nM.
As for `CCc1nc2ccc(F)cn2c1C(=O)NCc1ccc(N2CCN(S(=O)(=O)C(F)(F)F)C=N2)c(F)c1` [Compound 156], the IC50 is 1.38 nM.
For `CCc1nc2cc(F)c(Cl)cn2c1C(=O)NCc1ccc(N2CCN(S(=O)(=O)C(F)(F)F)C=N2)c(F)c1` [Compound 157], the IC50 is 1.38 nM.
On to `CCc1nc2nc3c(cn2c1C(=O)NCc1ccc(N2CCN(S(=O)(=O)C(F)(F)F)C(OC)=N2)c(F)c1)CCC3` [Compound 158], for which the IC50 was 1.38 nM.
With `O=C(NCc1ccc(N2CCN(S(=O)(=O)C(F)(F)F)C=N2)c(F)c1)c1c(C(F)F)nc2ccccn12` [Compound 159], the IC50 was 1.2 nM.
As for `COC1=NN(c2ccc(CNC(=O)c3c(C(F)F)nc4ccccn34)cc2F)CCN1S(=O)(=O)C(F)(F)F` [Compound 160], the IC50 was 1.2 nM.
In the case of `CCc1nc2sc(C)cn2c1C(=O)NCc1ccc(N2CCN(S(=O)(=O)C(F)(F)F)C=N2)c(F)c1` [Compound 163], the IC50 is 0.316 nM.
Take `CCc1nc2ccc(C)cn2c1C(=O)NCc1ccc(N2CCN(S(=O)(=O)C(F)(F)F)C=N2)c(F)c1` [Compound 164]: the IC50 is 0.245 nM.
Next, `CCc1nc2c(Br)cc(C)cn2c1C(=O)NCc1ccc(N2CCN(S(=O)(=O)C(F)(F)F)C=N2)c(F)c1` [Compound 166]: 245 nM; `O=C(NCc1cnc(N2CCN(S(=O)(=O)C(F)(F)F)C=N2)c(F)c1)c1c(C(F)(F)F)nc2ccc(Cl)cn12` [Compound 167]: 87.1 nM.
For `CCc1nc2ncc(Cl)cn2c1C(=O)NCc1cnc(N2CCN(S(=O)(=O)C(F)(F)F)C=N2)c(F)c1` [Compound 168], the IC50 is 38.9 nM.
Regarding `CCc1nc2nc3c(cn2c1C(=O)NCc1ccc(N2CCN(S(=O)(=O)C(F)(F)F)C=N2)c(F)c1)CCOC3` [Compound 169], the IC50 was 10 nM.

The values above are taken from patent US20220340564A1, “ANTIBACTERIAL COMPOUNDS” (Janssen Sciences Ireland Unlimited Company, priority 2019, published 2022).
